Measurements from patent publication US20250313572A1, “MACROCYCLIC MCL-1 INHIBITORS AND METHODS OF USE” (AbbVie Inc., priority 2017, published 2025).
Read-outs that look alike come from different tables or passages of the source.

Experiments:
[1] = tested on: AMO-1 human multiple myeloma tumor cell line; experiment: AMO-1 cell viability assay (CellTiter-Glo, 24 hours); format: cell-based
GST-MCL-1 = GST-MCL-1 (Homo sapiens, UniProt Q07820); experiment: TR-FRET MCL-1 binding assay (competition with probe F-Bak)
GST-MCL-1, sequence (Q07820 whole entry): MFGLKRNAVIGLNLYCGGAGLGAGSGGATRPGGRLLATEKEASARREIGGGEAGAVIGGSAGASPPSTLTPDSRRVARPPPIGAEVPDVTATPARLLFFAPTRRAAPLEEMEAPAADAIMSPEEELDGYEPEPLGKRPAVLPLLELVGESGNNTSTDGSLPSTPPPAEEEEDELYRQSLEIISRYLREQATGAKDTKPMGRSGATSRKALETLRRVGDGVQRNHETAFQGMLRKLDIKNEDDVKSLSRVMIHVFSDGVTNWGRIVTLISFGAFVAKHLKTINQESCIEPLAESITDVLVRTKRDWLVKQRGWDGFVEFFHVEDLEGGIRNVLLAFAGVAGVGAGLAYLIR
Outline: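 Test compounds, 11 three-fold dilutions from 25 μM final, incubated 2 hours at room temperature with GST-MCL-1, F-Bak probe and Tb-anti-GST antibody. TR-FRET read at 340/35 nm excitation with 520/525 and 495/510 nm emission. Run without human serum and with 10% HS.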

[2] = tested on: NCI-H929 human multiple myeloma tumor cell line; experiment: NCI-H929 cell viability assay (CellTiter-Glo, 24 hours); format: cell-based
Protocol: Each concentration was tested in duplicate at least 3 independent times. A luminescent signal proportional to the number of viable cells following 24 hours of compound treatment was determined using the CellTiter-Glo® Luminescent Cell Viability Assay according to the manufacturer's recommendations (Promega Corp., Madison, WI). The plates were read in a Perkin Elmer Envision using a Luminescence protocol. To generate dose response curves the data is normalized to percent viability by setting the averages of the staurosporine (10 μM) and DMSO only control wells to 0% and 100% viability respectively.

[3] = Homo sapiens, AMO1, 24 h, read-out: AMO-1 Viability IC50 (μM, 10% FBS), 10% FBS, 24 hours of compound treatment
[4] = MCL-1 Binding Ki (nM, 10% HS), in the presence of 10% HS (human serum)
[5] = without HS, read-out: MCL-1 Binding Ki
[6] = Homo sapiens, NCI-H929, 24 h, read-out: H929 Viability IC50 (μM, 10% FBS), 10% FBS, 24 hours of compound treatment

Compound	IC50 [1, 3]	Ki (GST-MCL-1; [4])	Ki (GST-MCL-1; [5])	IC50 [2, 6]	Ki (GST-MCL-1; read-out: MCL-1 Binding Ki (nM, 10% HS), in the presence of 10% HS (human serum))	IC50 ([1]; read-out: AMO-1 Viability IC50 (μM, 10% FBS), 10% FBS, 24 hours of compound treatment)	IC50 ([2]; read-out: H929 Viability IC50 (μM, 10% FBS), 10% FBS, 24 hours of compound treatment)
Cc1c(Cl)c2c(Cl)c(C)c1-c1c(-c3ccc(F)cc3)sc3ncnc(c13)O[C@@H](C(=O)O)Cc1cc(ccc1OCc1ccnc(-c3ccc(CCC(=O)O)cc3)n1)OC[C@@H](CN1CCN(C)CC1)O2 [Example 20, (7R,16R)-10-({2-[4-(2-carboxyethyl)phenyl]pyrimidin-4-yl}methoxy)-19,23-dichloro-1-(4-fluorophenyl)-20,22-dimethyl-16-[(4-methylpiperazin-1-yl)methyl]-7,8,15,16-tetrahydro-18,21-etheno-13,9-(metheno)-6,14,17-trioxa-2-thia-3,5-diazacyclononadeca[1,2,3-cd]indene-7-carboxylic Acid]	0.00425 µM	0.165 nM	0.007 nM	0.00804 µM			
CO[C@@H]1CO[C@H]2[C@@H]1OC[C@H]2OCCOCCOc1nccc(COc2ccc3cc2C[C@H](C(=O)O)Oc2ncnc4sc(-c5ccc(F)cc5)c(c24)-c2c(C)c(Cl)c(c(Cl)c2C)O[C@H](CN2CCN(C)CC2)CO3)n1 [Example 133, (7R,16R)-19,23-dichloro-1-(4-fluorophenyl)-10-({2-[2-(2-{[(3R,3aR,6R,6aR)-6-methoxyhexahydrofuro[3,2-b]furan-3-yl]oxy}ethoxy)ethoxy]pyrimidin-4-yl}methoxy)-20,22-dimethyl-16-[(4-methylpiperazin-1-yl)methyl]-7,8,15,16-tetrahydro-18,21-etheno-13,9-(metheno)-6,14,17-trioxa-2-thia-3,5-diazacyclononadeca[1,2,3-cd]indene-7-carboxylic Acid]	0.00324 µM	0.168 nM	0.044 nM	0.00879 µM			
COCCOCCOCCOCCCN1CCN(c2nccc(COc3ccc4cc3C[C@H](C(=O)O)Oc3ncnc5sc(-c6ccc(F)cc6)c(c35)-c3c(C)c(Cl)c(c(Cl)c3C)O[C@H](CN3CCN(C)CC3)CO4)n2)CC1 [Example 53, (7R,16R)-19,23-dichloro-1-(4-fluorophenyl)-20,22-dimethyl-16-[(4-methylpiperazin-1-yl)methyl]-10-({2-[4-(2,5,8,11-tetraoxatetradecan-14-yl)piperazin-1-yl]pyrimidin-4-yl}methoxy)-7,8,15,16-tetrahydro-18,21-etheno-13,9-(metheno)-6,14,17-trioxa-2-thia-3,5-diazacyclononadeca[1,2,3-cd]indene-7-carboxylic Acid]	0.0042 µM	0.632 nM	0.301 nM	0.00571 µM			
COCCOCCOCCO[C@H]1CC[C@H](c2nccc(COc3ccc4cc3C[C@H](C(=O)O)Oc3ncnc5sc(-c6ccc(F)cc6)c(c35)-c3c(C)c(Cl)c(c(Cl)c3C)O[C@H](CN3CCN(C)CC3)CO4)n2)CC1 [Example 57, (7R,16R)-19,23-dichloro-1-(4-fluorophenyl)-10-({2-[(1r,4r)-4-{2-[2-(2-methoxyethoxy)ethoxy]ethoxy}cyclohexyl]pyrimidin-4-yl}methoxy)-20,22-dimethyl-16-[(4-methylpiperazin-1-yl)methyl]-7,8,15,16-tetrahydro-18,21-etheno-13,9-(metheno)-6,14,17-trioxa-2-thia-3,5-diazacyclononadeca[1,2,3-cd]indene-7-carboxylic Acid]	0.000244 µM	0.072 nM	0.013 nM	0.00037 µM			
CO[C@@H]1CO[C@H]2[C@@H]1OC[C@H]2OCCOCCOC1CCC(c2nccc(COc3ccc4cc3C[C@H](C(=O)O)Oc3ncnc5sc(-c6ccc(F)cc6)c(c35)-c3c(C)c(Cl)c(c(Cl)c3C)O[C@H](CN3CCN(C)CC3)CO4)n2)CC1 (stereo partly drawn) [Example 138, (7R,16R)-19,23-dichloro-1-(4-fluorophenyl)-10-[(2-{(1r,4r)-4-[2-(2-{[(3R,3aR,6R,6aR)-6-methoxyhexahydrofuro[3,2-b]furan-3-yl]oxy}ethoxy)ethoxy]cyclohexyl}pyrimidin-4-yl)methoxy]-20,22-dimethyl-16-[(4-methylpiperazin-1-yl)methyl]-7,8,15,16-tetrahydro-18,21-etheno-13,9-(metheno)-6,14,17-trioxa-2-thia-3,5-diazacyclononadeca[1,2,3-cd]indene-7-carboxylic Acid]	0.002 µM		0.007 nM	0.00221 µM	0.049 nM		
COCCOCCOCCOCCOCCO[C@H]1CC[C@H](c2nccc(COc3ccc4cc3C[C@H](C(=O)O)Oc3ncnc5sc(-c6ccc(F)cc6)c(c35)-c3c(C)c(Cl)c(c(Cl)c3C)O[C@H](CN3CCN(C)CC3)CO4)n2)CC1 [Example 66, (7R,16R)-19,23-dichloro-1-(4-fluorophenyl)-20,22-dimethyl-16-[(4-methylpiperazin-1-yl)methyl]-10-[(2-{(1r,4r)-4-[(2,5,8,11,14-pentaoxahexadecan-16-yl)oxy]cyclohexyl}pyrimidin-4-yl)methoxy]-7,8,15,16-tetrahydro-18,21-etheno-13,9-(metheno)-6,14,17-trioxa-2-thia-3,5-diazacyclononadeca[1,2,3-cd]indene-7-carboxylic Acid]	0.000876 µM	0.119 nM	0.015 nM	0.00121 µM			
COCCOCCOCCC1CCN(C[C@@H]2COc3ccc(OCc4ccnc(-c5ccccc5OC)n4)c(c3)C[C@H](C(=O)O)Oc3ncnc4sc(-c5ccc(F)cc5)c(c34)-c3ccc(c(Cl)c3C)O2)CC1 (atropisomer, axis not shown) [Example 27, (7R,16R,21R)-19-chloro-1-(4-fluorophenyl)-16-[(4-{2-[2-(2-methoxyethoxy)ethoxy]ethyl}piperidin-1-yl)methyl]-10-{[2-(2-methoxyphenyl)pyrimidin-4-yl]methoxy}-20-methyl-7,8,15,16-tetrahydro-18,21-etheno-13,9-(metheno)-6,14,17-trioxa-2-thia-3,5-diazacyclononadeca[1,2,3-cd]indene-7-carboxylic Acid]		22 nM	0.987 nM			0.314 µM	0.319 µM
Cc1c(Cl)c2c(Cl)c(C)c1-c1c(-c3ccc(F)cc3)sc3ncnc(c13)O[C@@H](C(=O)O)Cc1cc(ccc1OCc1ccnc([C@H]3CC[C@H](CC(=O)O)CC3)n1)OC[C@@H](CN1CCN(C)CC1)O2 [Example 32, (7R,16R)-10-({2-[(1r,4r)-4-(carboxymethyl)cyclohexyl]pyrimidin-4-yl}methoxy)-19,23-dichloro-1-(4-fluorophenyl)-20,22-dimethyl-16-[(4-methylpiperazin-1-yl)methyl]-7,8,15,16-tetrahydro-18,21-etheno-13,9-(metheno)-6,14,17-trioxa-2-thia-3,5-diazacyclononadeca[1,2,3-cd]indene-7-carboxylic Acid]	0.00878 µM	0.034 nM	0.003 nM	0.0143 µM			
COCCOCCOCCOc1ccc(-c2nccc(COc3ccc4cc3C[C@H](C(=O)O)Oc3ncnc5sc(-c6ccc(F)cc6)c(c35)-c3ccc(c(Cl)c3C)O[C@H](CN3CCN(C)CC3)CO4)n2)cc1 (atropisomer, axis not shown) [Example 13, (7R,16R,21S)-19-chloro-1-(4-fluorophenyl)-10-{[2-(4-{2-[2-(2-methoxyethoxy)ethoxy]ethoxy}phenyl)pyrimidin-4-yl]methoxy}-20-methyl-16-[(4-methylpiperazin-1-yl)methyl]-7,8,15,16-tetrahydro-18,21-etheno-13,9-(metheno)-6,14,17-trioxa-2-thia-3,5-diazacyclononadeca[1,2,3-cd]indene-7-carboxylic Acid]	0.00046 µM	0.251 nM	0.054 nM	0.001 µM			
COCCOCCOCCOCCOCCOCCOCCOCCOCCOCCOCCC(=O)NCc1ccc(-c2nccc(COc3ccc4cc3C[C@H](C(=O)O)Oc3ncnc5sc(-c6ccc(F)cc6)c(c35)-c3c(C)c(Cl)c(c(Cl)c3C)O[C@H](CN3CCN(C)CC3)CO4)n2)cc1 [Example 50, (7R,16R)-19,23-dichloro-1-(4-fluorophenyl)-20,22-dimethyl-16-[(4-methylpiperazin-1-yl)methyl]-10-({2-[4-(35-oxo-2,5,8,11,14,17,20,23,26,29,32-undecaoxa-36-azaheptatriacontan-37-yl)phenyl]pyrimidin-4-yl}methoxy)-7,8,15,16-tetrahydro-18,21-etheno-13,9-(metheno)-6,14,17-trioxa-2-thia-3,5-diazacyclononadeca[1,2,3-cd]indene-7-carboxylic Acid]	0.0676 µM	0.513 nM	0.199 nM	0.103 µM			
Cc1c(Cl)c2c(Cl)c(C)c1-c1c(-c3ccc(F)cc3)sc3ncnc(c13)O[C@@H](C(=O)O)Cc1cc(ccc1OCc1ccnc(C3CCS(=O)(=O)CC3)n1)OC[C@@H](CN1CCN(C)CC1)O2 [Example 40, (7R,16R)-19,23-dichloro-10-{[2-(1,1-dioxo-1λ^6-thian-4-yl)pyrimidin-4-yl]methoxy}-1-(4-fluorophenyl)-20,22-dimethyl-16-[(4-methylpiperazin-1-yl)methyl]-7,8,15,16-tetrahydro-18,21-etheno-13,9-(metheno)-6,14,17-trioxa-2-thia-3,5-diazacyclononadeca[1,2,3-cd]indene-7-carboxylic Acid]	0.003 µM	0.085 nM	0.018 nM	0.00474 µM			
